Values joined by “and” are separate entries in the source; they are usually repeats but may differ in a detail not shown here. Identical values can stand only once.
How the values were obtained:
[1] = Crystal; for vapor or sublimation pressure: Calculated from knudsen effusion weight loss; for Normal melting temperature: DTA
[2] = Molar enthalpy of transition or fusion; details: Crystal; DSC

O=C(O)Cc1cccc(Cl)c1 [(3-chlorophenyl)ethanoic acid]
[1]
Details | vapor or sublimation pressure
319.2 K | 0.000131 kPa and 0.000132 kPa and 0.000133 kPa
321.13 K | 0.000172 kPa and 0.000174 kPa
323.11 K | 0.000226 kPa and 0.000216 kPa and 0.000224 kPa
325.2 K | 0.000281 kPa and 0.000279 kPa
327.12 K | 0.000356 kPa and 0.00036 kPa
329.11 K | 0.000468 kPa and 0.000453 kPa and 0.00046 kPa
331.19 K | 0.000576 kPa and 0.000578 kPa and 0.000567 kPa
333.11 K | 0.000733 kPa and 0.000713 kPa
335.11 K | 0.00092 kPa

Details | Molar enthalpy of transition or fusion [kcal/mol] | Normal melting temperature [°C]
[1] | – | 76.63
[2] | 5.4 | –

O=C(O)Cc1ccc(Cl)cc1 [(4-chlorophenyl)ethanoic acid]
[1]
Details | vapor or sublimation pressure
325.2 K | 0.000154 kPa and 0.000156 kPa and 0.000153 kPa
327.15 K | 0.000194 kPa and 0.000199 kPa and 0.000197 kPa
329.12 K | 0.000252 kPa and 0.00025 kPa
331.19 K | 0.000318 kPa and 0.000312 kPa
333.14 K | 0.000401 kPa and 0.000398 kPa and 0.000394 kPa
335.12 K | 0.000506 kPa and 0.000502 kPa
337.2 K | 0.000631 kPa and 0.000634 kPa
339.13 K | 0.000788 kPa and 0.000793 kPa and 0.000775 kPa
341.11 K | 0.001 kPa and 0.00099 kPa and 0.00098 kPa

Details | Molar enthalpy of transition or fusion [kcal/mol] | Normal melting temperature [°C]
[1] | – | 104.8
[2] | 5.63 | –

O=C(O)Cc1ccccc1Cl [(2-chlorophenyl)ethanoic acid]
[1]
Details | vapor or sublimation pressure
322.2 K | 0.000151 kPa and 0.000153 kPa and 0.000152 kPa
324.14 K | 0.000196 kPa and 0.000198 kPa and 0.000197 kPa
326.11 K | 0.00025 kPa and 0.000251 kPa and 0.000255 kPa
328.2 K | 0.000315 kPa and 0.00032 kPa and 0.000316 kPa
330.13 K | 0.000401 kPa and 0.000406 kPa and 0.000402 kPa
332.19 K | 0.000518 kPa and 0.000512 kPa
334.12 K | 0.00065 kPa and 0.000639 kPa
336.11 K | 0.000837 kPa and 0.000813 kPa and 0.000829 kPa
338.11 K | 0.00105 kPa and 0.00103 kPa

Details | Molar enthalpy of transition or fusion [kcal/mol] | Normal melting temperature [°C]
[1] | – | 94.24
[2] | 5.82 | –

From the NIST ThermoML archive (doi:10.1016/j.jct.2007.07.010)
